Data set [1] is described as follows: in vitro. To be noted: African green monkey.
The subject of data set [2] is EV71-B5 (strain TW/96016/08 genogroup B5). Briefly: Virus-cell-based antiviral assay (CPE reduction, MTS). Details: species or system enterovirus 71. To be noted: Enterovirus A; EV71 strain TW/96016/08 genogroup B5; RD cells.
Data set [3] has as its system PV3 (poliovirus type 3 strain Sabin). As to the kind of experiment: microbe, parasite or virus in culture. The data set is classed as cell-based. Particulars: Enterovirus C, BGM.
Data set [4] concerns HRV14 (human rhinovirus type 14). As to the kind of experiment: Virus-cell-based antiviral assay (CPE reduction, MTS). To be noted: Human rhinovirus sp., HeLa H1 cells (footnote c), 35°C.
Data set [5] has as its system EV71-B2 (strain 11316 genogroup B2). The data set is described as above. Details: species or system enterovirus 71. To be noted: Enterovirus A; EV71 strain 11316 genogroup B2; RD cells.
The test system of data set [6] is PV1 (poliovirus type 1 strain Sabin). Briefly: microbe, parasite or virus in culture. It counts as cell-based. Particulars: Enterovirus C, BGM.
Data set [7] has as its system CVA9 (strain Bozek). As to the kind of experiment: Virus-cell-based antiviral assay (CPE reduction, MTS). Also on record: species or system Coxsackie A9. To be noted: Enterovirus B, BGM cells.
In data set [8] the test system is ECHO11 (echovirus 11 strain Gregory). Described as above. Particulars: Enterovirus B, BGM cells.
For data set [9], the system named is CVB4 (strain E2 Edwards). The data set is described as above. Particulars: Enterovirus B, BGM cells.
The test system of data set [10] is CVA21 (strain Coe). The description is as above. Particulars: BGM cells.
Data set [11] deals with CVA16 (strain G-10). The description is as above. Also on record: species or system coxsackievirus A16. To be noted: Enterovirus A, HeLa H1 cells.
Data set [12] concerns PV2 (poliovirus type 2 strain Sabin). As to the kind of experiment: microbe, parasite or virus in culture. The data set is classed as cell-based. To be noted: Enterovirus C, BGM.
In data set [13] the test system is HRV02 (human rhinovirus type 2). As to the kind of experiment: Virus-cell-based antiviral assay (CPE reduction, MTS). Particulars: Human rhinovirus sp., HeLa H1 cells (footnote c), 35°C.
Data set [14] has as its system CVB3 (strain Nancy). The description is as above. To be noted: Enterovirus B, BGM cells. Also on record: species or system Coxsackievirus B3.

Where only a bound is given, the exact number is not on record here.

Compound `CCON=Cc1ccc(OCCC(C)CCN2CCN(c3ccnc(C(N)=O)c3)C2=O)cc1` (stereo not shown) [ALD] gave a CC50 in data set [1] of 7000 ± 1000 nM. Also, the EC50 in data set [2] came out at 82 ± 23 nM; in [3] it was 184 ± 8 nM; in [4], 843 ± 13 nM; in data set [5], 31 ± 12 nM; in data set [6] it was 3500 ± 1400 nM; in data set [7], 5400 ± 1000 nM. Besides, the EC50 in data set [8] was 2100 ± 500 nM; in [9], above 7000 nM; in data set [10] it was 56 ± 40 nM; in data set [11], 43 ± 8 nM; in data set [12], 75 ± 19 nM; in data set [13] it was above 21000 nM. In addition, it took 2200 ± 200 nM to reach a half-maximal effect in data set [14] (EC50).

In turn, `CCON=Cc1ccc(OCCC(C)CCN2CCN(c3ccncc3)C2=O)cc1` (stereo not shown) [GPP3] came in with a CC50 in [1] of 7000 ± 2000 nM. The EC50 in data set [2] came out at 0.93 ± 0.3 nM; in data set [3] it was 66 nM; in [4], 1500 ± 300 nM; in [5] it was 0.96 ± 0.6 nM; in data set [6] it was 200 nM; in data set [7], 1500 ± 100 nM. The EC50 in data set [8] was 500 ± 100 nM; in [9], above 7000 nM; in data set [10] it was 16 ± 15 nM; in data set [11] it was 14 ± 4 nM; in data set [12] it was 6 nM; in data set [13], 1000 ± 700 nM. This compound gave an EC50 in [14] of 3700 ± 200 nM.

By EC50 is commonly meant the concentration needed to bring the measured effect to its halfway point.

For the origin of these results see article PMC4613828 (PLoS Pathogens, 2015).
